In BindingDB's records for patent US20240287079 (Japan Tobacco, 2024):

The compounds below were run against NACHT, LRR and PYD domains-containing protein 3 (Homo sapiens, UniProt Q96P20) (assay: Evaluation of NLRP3 Inflammasome Inhibitory Activity Assay).
Experimental: The NLRP3 inflammasome inhibitory activity of test compounds were evaluated on the basis of the inhibitory activity of the IL-1β production in THP1-Null cells (Product Number: thp-null, InvivoGen). […] The supernatant of the culture was removed, and thereto was added media for assay (25 μL/well) containing 1 μg/mL Lipopolysaccharides (Product Number: L2654, Sigma-Aldrich (registered trademark)). […] The supernatant of the culture was removed. […] A solution containing a test compound (20 μL/well) was added to test compound-setting wells. […] The supernatant of the culture was cryonically stored (set at −20° C.) until measurement of IL-1β.

Chain of NACHT, LRR and PYD domains-containing protein 3 (Q96P20 whole entry, the tested form may be a part): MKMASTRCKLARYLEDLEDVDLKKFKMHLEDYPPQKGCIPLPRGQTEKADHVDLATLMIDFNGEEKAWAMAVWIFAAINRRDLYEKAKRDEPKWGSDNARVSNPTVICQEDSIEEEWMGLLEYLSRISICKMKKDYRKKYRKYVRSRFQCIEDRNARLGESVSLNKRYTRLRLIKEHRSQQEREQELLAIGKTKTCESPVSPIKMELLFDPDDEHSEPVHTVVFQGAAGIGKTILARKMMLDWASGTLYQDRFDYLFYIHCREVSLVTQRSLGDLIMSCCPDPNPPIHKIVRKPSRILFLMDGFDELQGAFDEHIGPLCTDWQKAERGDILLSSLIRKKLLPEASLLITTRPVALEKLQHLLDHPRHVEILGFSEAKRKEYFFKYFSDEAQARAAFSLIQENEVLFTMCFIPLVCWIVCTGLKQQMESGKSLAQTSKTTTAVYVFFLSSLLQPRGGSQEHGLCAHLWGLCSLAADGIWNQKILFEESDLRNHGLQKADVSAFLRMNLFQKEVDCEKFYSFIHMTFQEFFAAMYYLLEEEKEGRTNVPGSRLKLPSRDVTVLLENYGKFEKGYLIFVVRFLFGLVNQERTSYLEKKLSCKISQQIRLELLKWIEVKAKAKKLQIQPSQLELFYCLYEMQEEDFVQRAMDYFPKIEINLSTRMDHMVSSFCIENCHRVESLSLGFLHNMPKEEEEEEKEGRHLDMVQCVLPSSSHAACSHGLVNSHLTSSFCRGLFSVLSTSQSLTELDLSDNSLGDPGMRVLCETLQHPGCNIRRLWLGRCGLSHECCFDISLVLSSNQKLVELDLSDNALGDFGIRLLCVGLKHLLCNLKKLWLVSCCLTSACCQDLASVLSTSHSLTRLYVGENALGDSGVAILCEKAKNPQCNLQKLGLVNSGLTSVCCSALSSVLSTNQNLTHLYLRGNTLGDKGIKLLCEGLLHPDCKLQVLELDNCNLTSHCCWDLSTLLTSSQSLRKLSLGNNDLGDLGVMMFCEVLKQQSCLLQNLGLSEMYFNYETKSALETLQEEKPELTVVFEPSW

SMILES | IC50
COC1(C)CN(c2nc3nn(-c4c(C)cc(Br)cc4C)cc3c(=O)[nH]2)C1 [US20240287079, Example 203] | 27 nM
Cc1cc(Br)cc(C)c1-n1cc2c(=O)[nH]c(N3CC4(COC4)C3)nc2n1 [US20240287079, Example 204] | 28 nM
COC1(C)CN(c2nc3nn(-c4c(C)cc(Br)cc4C)cc3c(=O)n2C)C1 [US20240287079, Example 212] | 130 nM
Cc1cc(Br)cc(C)c1-n1cc2c(=O)[nH]c(N3CCOC[C@H]3C)nc2n1 [US20240287079, Example 213] | 6.8 nM
Cc1cc(Br)cc(C)c1-n1cc2c(=O)[nH]c(N3CCO[C@@H](C)C3)nc2n1 [US20240287079, Example 214] | 19 nM
Cc1cc(Br)cc(C)c1-n1cc2c(=O)[nH]c(N3CCO[C@H](C)C3)nc2n1 [US20240287079, Example 215] | 17 nM
COC1COCCN(c2nc3nn(-c4c(C)cc(Br)cc4C)cc3c(=O)[nH]2)C1 (stereo unspecified) [US20240287079, Example 216] | 12 nM
Cc1cc(Br)cc(C)c1-n1cc2c(=O)[nH]c(N3CCOC[C@@H]3C)nc2n1 [US20240287079, Example 223] | 160 nM
Cc1cc(Br)cc(C)c1-n1cc2c(=O)[nH]c(N3C[C@@H](C)O[C@@H](C)C3)nc2n1 [US20240287079, Example 224] | 80 nM
Cc1cc(Br)cc(C)c1-n1cc2c(=O)[nH]c(N3CCOC4(CC4)C3)nc2n1 [US20240287079, Example 225] | 19 nM
Cc1cc(Br)cc(C)c1-n1cc2c(=O)[nH]c(N3C4CCC3CC(F)(F)C4)nc2n1 [US20240287079, Example 238] | 110 nM
Cc1cc(Br)cc(C)c1-n1cc2c(=O)[nH]c(N3CC4CCC(C3)C4(F)F)nc2n1 [US20240287079, Example 239] | 11 nM
Cc1cc(Br)cc(C)c1-n1cc2c(=O)[nH]c(N3CCC4CC43)nc2n1 (stereo unspecified) [US20240287079, Example 240] | 7.1 nM
CNc1nc2nn(-c3c(C)cc(Br)cc3C)cc2c(=O)n1C [US20240287079, Example 247] | 260 nM
CCC1COCCN1c1nc2nn(-c3c(C)cc(Br)cc3C)cc2c(=O)[nH]1 (stereo unspecified) [US20240287079, Example 248] | 30 nM
Cc1cc(Br)cc(C)c1-n1cc2c(=O)[nH]c(N3CCOC4(COC4)C3)nc2n1 [US20240287079, Example 264] | 32 nM
